Data as given in US20070161644A1, “Erastin analogs and uses thereof” (priority 2005, published 2007).

How the values were obtained:
Assay in all cases: Calcein AM viability assay, dilution series
Assay type in all cases: cell-based, human
Conditions in all cases: 50% inhibition of calcein AM staining; 16-point two-fold dilution; two days
[1] = test system: BJ-TERT/LT/ST/RAS^V12 cells
Method: Described here is work carried out to identify compounds with increased potency or activity in the presence of hTERT, LT, ST, E6, E7 or RAS^V12. Although the work described herein made use of hTERT, LT, ST, E6, E7 and RAS^V12 as transforming genes, future studies can make use of a wide variety of cancer-associated alleles using this methodology in order to define the signaling networks that involve many oncogenes and tumor suppressors. […] Cell viability was measured using the dye calcein acetoxymethyl ester (calcein AM) (Wang et al., 1993, Hum. Immunol. 37, 264-270), which is a non-fluorescent compound that freely diffuses into cells. […]
Calcein acetoxylmethyl ester (AM) is a cell membrane-permeable, non-fluorescent compound that is cleaved by intracellular esterases to form the anionic, cell-impermeable, fluorescent compound calcein. […] Total fluorescence intensity in each well was recorded on a Packard Fusion platereader, and converted to a percent inhibition of signal by subtracting the instrument background and dividing by the average signal obtained when cells were not treated with any compound. […]
Mean RFU (relative fluorescence units) for untreated cells was calculated by averaging columns 1, 2, and 23 (wells with cells but lacking compounds). The calcein background was calculated by averaging column 24 (wells with calcein, but lacking cells). […]

[2] = test system: BJ-TERT/LT/RAS^V12/ST cells
Source text: (§1) Described here is work carried out to identify compounds with increased potency or activity in the presence of hTERT, LT, ST, E6, E7 or RAS^V12. Although the work described herein made use of hTERT, LT, ST, E6, E7 and RAS^V12 as transforming genes, future studies can make use of a wide variety of cancer-associated alleles using this methodology in order to define the signaling networks that involve many oncogenes and tumor suppressors. Engineered cell lines with these genetic elements were used to screen 23,550 compounds, including 20,000 compounds from a combinatorial library, 1,990 compounds from the National Cancer Institute diversity collection, and 1,540 biologically active known compounds that were selected and purchased by Applicant and formatted into a screenable collection. The primary screen tested (in quadruplicate) the effect of treating tumorigenic BJ-TERT/LT/ST/RAS^V12 engineered tumorigenic cells with each compound for 48 hours at a concentration of 4 μg/mL, corresponding to 10 μM for a compound with a molecular weight of 400, which is the approximate median molecular weight of the libraries. Cell viability was measured using the dye calcein acetoxymethyl ester (calcein AM) (Wang et al., 1993, Hum. Immunol. 37, 264-270), which is a non-fluorescent compound that freely diffuses into cells. In live cells, calcein AM is cleaved by intracellular esterases, forming the anionic fluorescent derivative calcein, which cannot diffuse out of live cells. […] The IC50 value (concentration required to inhibit 50% of the calcein AM signal) was calculated for each compound in each cell line (Table 1). […] Following is a more detailed analysis of these nine compounds.
(§2) Calcein acetoxylmethyl ester (AM) is a cell membrane-permeable, non-fluorescent compound that is cleaved by intracellular esterases to form the anionic, cell-impermeable, fluorescent compound calcein. Viable cells are stained by calcein because of the presence of intracellular esterases and because the intact plasma membrane prevents fluorescent calcein from leaking out of cells (Wang et al., 1993, supra). Cells were seeded in 384-well plates using a Zymark Sciclone ALH, treated with each compound in triplicate at 4 μg/mL in the primary screen for two days, washed with phosphate-buffered saline on a Packard Minitrak with a 384-well washer and incubated for four hours with 0.7 μg/mL calcein (Molecular Probes). Total fluorescence intensity in each well was recorded on a Packard Fusion platereader, and converted to a percent inhibition of signal by subtracting the instrument background and dividing by the average signal obtained when cells were not treated with any compound.
(§3) Compounds to be retested were purchased from manufacturers. Stocks were prepared in DMSO at a concentration of 1 mg/ml in 384-well polypropylene plates with a 16-point, two-fold dilution dose curve of each compound in a column, in duplicates. Column 1-2 and 23-24 were left empty for controls. Daughter retest plates were prepared from stock retest plate by diluting 66.6 fold in DMEM in 384-well deep-deep well plates (4.5 μl transfer into 300 μl). Cells were seeded at a density of 6000 per well in 40 μl, and 20 μl was added from a daughter retest plate. The plates were incubated for two days at 37° C. with 5% CO2.
(§4) Mean RFU (relative fluorescence units) for untreated cells was calculated by averaging columns 1, 2, and 23 (wells with cells but lacking compounds). The calcein background was calculated by averaging column 24 (wells with calcein, but lacking cells). Percentage inhibition of each well was calculated as [1−(RFU−calcein control)/(untreated cell−calcein control)*100]. Compounds causing at least 50% inhibition of calcein staining in the primary screen were tested for selectivity towards BJ-TERT/LT/ST/RAS^V12 engineered tumor cells by testing in BJ primary and BJ-TERT/LT/ST/RAS^V12 cells at a range of concentrations. Selective compounds were retested in all engineered cell lines.

TIP5/TERT/E6/E7/ST cells = test system: TIP5/TERT/E6/E7/ST cells
Source text: as §1, §2, §3, §4

BJ primary cells = test system: BJ primary cells
Source text: as §1, §2, §3, §4

[3] = test system: TIP5/TERT/LT/ST/RAS^V12 cells
Source text: as §1, §2, §3, §4

[4] = test system: TIP5/TERT/E6/E7/ST/RAS^V12 cells
Source text: as §1, §2, §3, §4

TIP5/TERT/LT cells = test system: TIP5/TERT/LT cells
Source text: as §1, §2, §3, §4

TIP5/TERT cells = test system: TIP5/TERT cells
Source text: as §1, §2, §3, §4

BJ-TERT/LT/ST cells = test system: BJ-TERT/LT/ST cells
Source text: as §1, §2, §3, §4

TIP5/TERT/E6/E7 cells = test system: TIP5/TERT/E6/E7 cells
Source text: as §1, §2, §3, §4

## Cc1c2ccccc2c(CSC(=N)N)c2ccccc12.Cl [NSC146109]
[1]
  IC50 BJ-TERT/LT/ST/Ras^v12: 2.5 µg/mL
[2]
  IC50 BJ-TERT/LT/Ras^v12/ST: 2.5 µg/mL
TIP5/TERT/E6/E7/ST cells
  IC50 TIP5-TERT/E6E7/ST: 2.5 µg/mL
BJ primary cells
  IC50 BJ: >5 µg/mL
[3]
  IC50 TIP5-TERT/LT/ST/Ras^v12: 2.5 µg/mL
[4]
  IC50 TIP5-TERT/E6E7/ST/Ras^v12: 2.5 µg/mL
TIP5/TERT/LT cells
  IC50 TIP5-TERT/LT: >5 µg/mL
TIP5/TERT cells
  IC50 TIP5-TERT: >5 µg/mL
BJ-TERT/LT/ST cells
  IC50 BJ-TERT/LT/ST: 2.5 µg/mL
TIP5/TERT/E6/E7 cells
  IC50 TIP5-TERT/E6E7: 2.5 µg/mL
